Assay results taken from patent publication US20230079045A1 (priority 2019, published 2023).
pEC50: −log10 of the molar value. Like-named read-outs stand apart in the source and are kept apart here.

How the values were obtained:
Format in all cases: cell-based, influenza virus
[1] = system: IFVA/Mal/302/54; assay: cytopathic effect (CPE) antiviral test in MDCK cells, IFVA/Mal/302/54
[2] = system: IFVA/Weiss/43; assay: cytopathic effect (CPE) antiviral test in MDCK cells, IFVA/Weiss/43
[3] = system: IFV A/PR/8/34; assay: cytopathic effect (CPE) antiviral test in MDCK cells, IFV A/PR/8/34; conditions: unidentified influenza virus, PR/8, MDCK, 120 h, read-out: EC50(IFV A/PR/8/34)
[4] = unidentified influenza virus, MDCK, 120 h, read-out: EC50(IFVA/Mal/302/54), MDCK cells, CPE method, CCK-8 cell viability, 5 days
[5] = unidentified influenza virus, MDCK, 120 h, read-out: EC50(IFVA/Weiss/43), MDCK cells, CPE method, CCK-8 cell viability, 5 days

Row | SMILES | pEC50 [1, 4] | pEC50 [2, 5] | pEC50 ([1]; read-out: EC50(IFVA/Mal/302/54), MDCK cells, CPE method, CCK-8 cell viability, 5 days) | pEC50 ([2]; read-out: EC50(IFVA/Weiss/43), MDCK cells, CPE method, CCK-8 cell viability, 5 days) | pEC50 [3]
1 | O=C(Nc1ccc2oc(-c3ccnc(C(=O)N4CCN(C(c5ccccc5)c5nnn(C(F)F)n5)CC4)c3)nc2c1)[C@H]1C[C@@H]1F (mixture of isomers) [Compound 95, (1R,2S)—N-(2-(2-(4-((R/S)-(2-(difluoromethyl)-2H-tetrazol-5-yl)(phenyl)methyl)piperazine-1-carbonyl)pyridin-4-yl)benzo[d]oxazol-5-yl)-2-fluorocyclopropane-1-carboxamide] | 8.00 | 7.77 |  |  | 
2 | CC(=O)Nc1ccc2oc(-c3ccnc(C(=O)N4CCN(C(c5ccccc5)c5nnn(C)n5)[C@H](C)C4)c3)nc2c1 (mixture of isomers) [Compound 16a, N-(2-(2-((3R)-3-methyl-4-((2-methyl-2H-tetrazol-5-yl)(phenyl)methyl)piperazine-1-carbonyl)pyridin-4-yl)benzo[d]oxazol-5-yl)acetamide] | < 5.00 | 5.15 |  |  | 
3 | O=C(Nc1ccc2oc(-c3ccnc(C(=O)N4CCN(C(c5ccccc5)c5nnn(C(F)F)n5)CC4)c3)nc2c1)[C@@H]1CC1(F)F (mixture of isomers) [Compound 29, (1S)—N-(2-(2-(4-((2-(difluoromethyl)-2H-tetrazol-5-yl)(phenyl)methyl)piperazine-1-carbonyl)pyridin-4-yl)benzo[d]oxazol-5-yl)-2,2-difluorocyclopropane-1-carboxamide] | 7.66 | 8.40 |  |  | 
4 | O=C(Nc1ccc2oc(-c3ccnc(C(=O)N4CCN(C(c5ccccc5)c5nnn(C(F)F)n5)CC4)c3)nc2c1)[C@@H]1C[C@@H]1F (mixture of isomers) [Compound 31, (1S,2S)-2-fluoro-N-(2-(2-(4-((2-difluoromethyl-2H-tetrazol-5-yl)(phenyl)methyl)piperazine-1-carbonyl)pyridin-4-yl)benzo[d]oxazol-5-yl)cyclopropane-1-carboxamide] | 8.15 | 8.70 |  |  | 
5 | CC(=O)Nc1ccc2oc(-c3ccnc(C(=O)N4CCN(C(c5ccccc5)c5nnn(C(F)F)n5)CC4)c3F)nc2c1 (racemic) [Compound 79, (R/S)—N-(2-(2-(4-((2-(difluoromethyl)-2H-tetrazol-5-yl)(phenyl)methyl)piperazine-1-carbonyl)-3-fluoropyridin-4-yl)benzo[d]oxazol-5-yl)acetamide] | 7.89 | 8.15 |  |  | 
6 | Cn1ccnc1-c1ccc2oc(-c3ccnc(C(=O)N4CCN(C(c5ccccc5)c5nnn(C(F)F)n5)CC4)c3)nc2c1 (racemic) [Compound 88, (R/S)-(4-((2-(difluoromethyl)-2H-tetrazol-5-yl)(phenyl)methyl)piperazin-1-yl)(4-(5-(1-methyl-1H-imidazol-2-yl)benzo[d]oxazol-2-yl)pyridin-2-yl)methanone] | 8.70 | 8.70 |  |  | 
7 | CC(=O)Nc1ccc2nc(-c3ccnc(C(=O)N4CCN(C(c5ccccc5)c5nnn(C(F)F)n5)CC4)c3)oc2c1 (racemic) [Compound 90, (R/S)—N-(2-(2-(4-((2-(difluoromethyl)-2H-tetrazol-5-yl)(phenyl)methyl)piperazine-1-carbonyl)pyridin-4-yl)benzo[d]oxazol-6-yl)acetamide] | 7.74 | 7.55 |  |  | 
8 | CCC(=O)Nc1ccc2oc(-c3ccnc(C(=O)N4CCN(C(c5ccccc5)c5nnn(C(F)F)n5)CC4)c3)nc2c1 (racemic) [Compound 96, (R/S)—N-(2-(2-(4-((2-(difluoromethyl)-2H-tetrazol-5-yl)(phenyl)methyl)piperazine-1-carbonyl)pyridin-4-yl)benzo[d]oxazol-5-yl)propionamide] | 8.15 | 7.92 |  |  | 
9 | CC(C)C(=O)Nc1ccc2oc(-c3ccnc(C(=O)N4CCN(C(c5ccccc5)c5nnn(C(F)F)n5)CC4)c3)nc2c1 (racemic) [Compound 97, (R/S)—N-(2-(2-(4-((2-(difluoromethyl)-2H-tetrazol-5-yl)(phenyl)methyl)piperazine-1-carbonyl)pyridin-4-yl)benzo[d]oxazol-5-yl)isobutyramide] | 8.22 | 8.15 |  |  | 
10 | O=C(c1cc(-c2nc3cc(-c4cscn4)ccc3o2)ccn1)N1CCN(C(c2ccccc2)c2nnn(C(F)F)n2)CC1 (racemic) [Compound 110, (R/S)-(4-((2-(difluoromethyl)-2H-tetrazol-5-yl)(phenyl)methyl)piperazin-1-yl)(4-(5-(thiazol-4-yl)benzo[d]oxazol-2-yl)pyridin-2-yl)methanone] | 8.52 | 8.52 |  |  | 
11 | O=C(Nc1ccc2oc(-c3ccnc(C(=O)N4CCN(C(c5ccccc5)c5nnn(C(F)F)n5)CC4)c3)nc2c1)C1CC1 (racemic) [Compound 196, (R/S)—N-(2-(2-(4-((2-(difluoromethyl)-2H-tetrazol-5-yl)(phenyl)methyl)piperazine-1-carbonyl)pyridin-4-yl)benzo[d]oxazol-5-yl)cyclopropanecarboxamide] | 8.10 | 8.22 |  |  | 
12 | CC(=O)Nc1ccc2oc(-c3ccnc(C(=O)N4CCN(C(c5ccccc5)c5nnn(C)n5)[C@H](C)C4)c3)nc2c1 (single isomer, unassigned) [Compound 16b] | < 5.00 | < 5.00 |  |  | 
13 | O=C(Nc1ccc2oc(-c3ccnc(C(=O)N4CCN(C(c5ccccc5)c5nnn(C(F)F)n5)CC4)c3)nc2c1)C1CC1(F)F (single isomer, unassigned) [Compound 82, (R/S)—N-(2-(2-(4-((R/S)-(2-(difluoromethyl)-2H-tetrazol-5-yl)(phenyl)methyl)piperazine-1-carbonyl)pyridin-4-yl)benzo[d]oxazol-5-yl)-2,2-difluorocyclopropane-1-carboxamide] | 7.96 | 8.15 |  |  | 
14 | Cn1nnc(C(c2ccccc2)N2CCN(C(=O)c3cc(-c4nc5cc(OC6CCOC6)ccc5o4)ccn3)CC2)n1 (stereo in doubt) [Compound 43, (4-((2-methyl-2H-tetrazol-5-yl)(phenyl)methyl)piperazin-1-yl)(4-(5-(((R)-tetrahydrofuran-3-yl)oxy)benzo[d]oxazol-2-yl)pyridin-2-yl)methanone] |  |  | 8.00 | 7.24 | 
15 | CC(=O)Nc1ccc2oc(-c3ccnc(C(=O)N4CC5CCC(C4)N5C(c4ccccc4)c4nnn(C)n4)c3)nc2c1 (stereo not drawn) [Compound 1, N-(2-(2-(8-((2-methyl-2H-tetrazol-5-yl)(phenyl)methyl)-3,8-diazabicyclo[3.2.1]octane-3-carbonyl)pyridin-4-yl)benzo[d]oxazol-5-yl)acetamide] | 6.24 | 6.32 |  |  | 
16 | Cn1nnc(C(c2ccccc2)N2CCN(C(=O)c3cc(-c4nc5cc(N6CCCC6=O)ccc5o4)ccn3)CC2)n1 (stereo not drawn) [Compound 2, 1-(2-(2-(4-((2-methyl-2H-tetrazol-5-yl)(phenyl)methyl)piperazine-1-carbonyl)pyridin-4-yl)benzo[d]oxazol-5-yl)pyrrolidin-2-one] | 7.59 | > 8.30 |  |  | 
17 | CC(=O)Nc1ccc2oc(-c3ccnc(C(=O)N4CC5CN(C(c6ccccc6)c6nnn(C)n6)CC5C4)c3)nc2c1 (stereo not drawn) [Compound 3, N-(2-(2-(5-((2-methyl-2H-tetrazol-5-yl)(phenyl)methyl)octahydropyrrolo[3,4-c]pyrrole-2-carbonyl)pyridin-4-yl)benzo[d]oxazol-5-yl)acetamide] | 5.93 | 6.11 |  |  | 
18 | CC(=O)Nc1ccc2oc(-c3ccnc(C(=O)N4CCN(C(c5ccccc5)c5nnn(C)n5)CC45CC5)c3)nc2c1 (stereo not drawn) [Compound 5, N-(2-(2-(7-((2-methyl-2H-tetrazol-5-yl)(phenyl)methyl)-4,7-diazaspiro[2.5]octane-4-carbonyl)pyridin-4-yl)benzo[d]oxazol-5-yl)acetamide] | 7.62 | 7.80 |  |  | 
19 | CC(=O)Nc1ccc2oc(-c3ccnc(C(=O)N4C[C@H]5C[C@@H]4CN5C(c4ccccc4)c4nnn(C)n4)c3)nc2c1 (stereo partly drawn) [Compound 6a, N-(2-(2-((1R,4R)-5-((2-methyl-2H-tetrazol-5-yl)(phenyl)methyl)-2,5-diazabicyclo[2.2.1]heptane-2-carbonyl)pyridin-4-yl)benzo[d]oxazol-5-yl)acetamide] | < 5.00 | < 5.10 |  |  | 
20 | [2H]C([2H])([2H])n1nnc(C(c2ccccc2)N2CCN(C(=O)c3cc(-c4nc5cc(NC(=O)[C@@H]6C[C@@H]6F)ccc5o4)ccn3)CC2)n1 (stereo partly drawn) [Compound 178, (1S,2S)-2-fluoro-N-(2-(2-(4-((R)-(2-Deuteratedmethyl-2H-tetrazol-5-yl)(phenyl)methyl)piperazine-1-carbonyl)pyridin-4-yl)benzo[d]oxazol-5-yl)cyclopropanecarboxamide] |  |  |  |  | 8.15
21 | Cc1nnn([C@@H](c2ccsc2)C2CCN(C(=O)c3cc(-c4nc5cc(NC(=O)[C@@H]6C[C@@H]6F)ccc5o4)ccn3)CC2)n1 [Compound 203, (1S,2S)-2-fluoro-N-(2-(2-(4-((R)-(5-methyl-2H-tetrazol-2-yl)(thiophen-3-yl)methyl)piperidine-1-carbonyl)pyridin-4-yl)benzo[d]oxazol-5-yl)cyclopropanecarboxamide] |  |  |  |  | 7.72
22 | [2H]c1c([2H])c([2H])c([C@@H](C2CCN(C(=O)c3cc(-c4nc5cc(NC(=O)[C@@H]6C[C@@H]6F)ccc5o4)ccn3)CC2)n2nnc(C)n2)c([2H])c1[2H] [Compound 205, (1S,2S)-2-fluoro-N-[2-[2-[4-[(R)-(5-methyltetrazol-2-yl)-(2,3,4,5,6-pentadeuteriophenyl)methyl]piperidine-1-carbonyl]-4-pyridyl]-1,3-benzoxazol-5-yl]cyclopropanecarboxamide] |  |  |  |  | 8.26
23 | O=C(c1cc(-c2nc3cc(-c4cn(C(F)F)cn4)ccc3o2)ccn1)N1CCC(C(c2ccccc2)n2nnc(CO)n2)CC1 (stereo not drawn) [Compound 217, (4-(5-(1-(difluoromethyl)-1H-imidazol-4-yl)benzo[d]oxazol-2-yl)pyridin-2-yl)(4-((5-(hydroxymethyl)-2H-tetrazol-2-yl)(phenyl)methyl)piperidin-1-yl)methanone] |  |  |  |  | 8.48
